From US20200016136A1 (VIIV HEALTHCARE UK (NO. 5) LIMITED, priority 2017, published 2020)

These molecules were tested on NL-RLuc virus (recombinant NL4-3 HIV with Renilla Luciferase gene) (assay: Inhibition of HIV replication (NL-RLuc virus in MT-2 cells, luciferase readout)). Conditions: MT2, 120 h.
Type: cell-based, Human immunodeficiency virus (HIV)
Excerpt: Inhibition of HIV Replication:
A recombinant NL-RLuc proviral clone was constructed in which a section of the nef gene form NL4-3 was replaced with the Renilla Luciferase gene. This virus is fully infectious and can undergo multiple cycles of replication in cell culture. In addition, the luciferous reporter provides a simple and easy method for quantitating the extent of virus growth and consequently, the antiviral activity of test compounds. The plasmid pNLRLuc contains the proviral NL-Rluc DNA cloned into pUC18 at the PvuII site. The NL-RLuc virus was prepared by transfection of 293T cells with the plasmid pNLRLuc. Transfections were performed using the LipofectAMINE PLUS kit form Invitrogen (Carlsbad, Calif.) according to the manufacturer and the virus generated was titered in MT-2 cells. For susceptibility analyses, the titrated virus was used to infect MT-2 cells in the presence of compound, and after 5 days of incubation, cells were processed and quantitated for virus growth by the amount of expressed luciferase. Assay media was RPMI 1640 supplemented with 10% heat inactivated fetal bovine serum (FBS), 100 units/ml penicillin G/100 units/ml streptomycin, 10 mM HEPES buffer pH 7.55 and 2 mM L-glutamine. The results form at least 2 experiments were used to calculate the EC50 values. Luciferase was quantitated using the Dual Luciferase kit form Promega (Madison, Wis.). Susceptibility of viruses to compounds was determined by incubation in the presence of serial dilutions of the compound. The 50% effective concentration (EC50) was calculated by using the exponential form of the median effect equation where (Fa)=1/[1+(ED50/drug conc.)^m](Johnson V A, Byington R T. Infectivity Assay. In Techniques in HIV Research. ed. Aldovini A, Walker B D. 71-76. New York: Stockton Press. 1990).
In the case of `Cc1cccc(Cl)c1CN1CCc2cc(-c3c(NCCCN(C)C)nc(C)c([C@H](OC(C)(C)C)C(=O)O)c3N3CCC(C)(C)CC3)ccc2C1` [Example 9, (S)-2-(tert-Butoxy)-2-(5-(2-(2-chloro-6-methylbenzyl)-1,2,3,4-tetrahydroisoquinolin-6-yl)-6-((3-(dimethylamino)propyl)amino)-4-(4,4-dimethylpiperidin-1-yl)-2-methylpyridin-3-yl)acetic Acid], the EC50 is reported as 2 nM.
`Cc1cccc(Cl)c1CN1CCc2cc(-c3c(NCCCN4CCCCC4)nc(C)c([C@H](OC(C)(C)C)C(=O)O)c3N3CCC(C)(C)CC3)ccc2C1` [Example 10, (S)-2-(tert-Butoxy)-2-(5-(2-(2-chloro-6-methylbenzyl)-1,2,3,4-tetrahydroisoquinolin-6-yl)-4-(4,4-dimethylpiperidin-1-yl)-2-methyl-6-((3-(piperidin-1-yl)propyl)amino)pyridin-3-yl)acetic Acid] showed an EC50 of 2 nM.
With `Cc1cccc(Cl)c1CN1CCc2cc(-c3c(NCCCN4CCN(C)CC4)nc(C)c([C@H](OC(C)(C)C)C(=O)O)c3N3CCC(C)(C)CC3)ccc2C1` [Example 11] the EC50 was 2 nM.
Work on `Cc1nc(NC2CCN(C)CC2)c(-c2ccc3c(c2)CCN(c2ncnc4c2oc2ccccc24)C3)c(N2CCC(C)(C)CC2)c1[C@H](OC(C)(C)C)C(=O)O` [Example 12, (S)-2-(5-(2-(Benzofuro[3,2-d]pyrimidin-4-yl)-1,2,3,4-tetrahydroisoquinolin-6-yl)-4-(4,4-dimethylpiperidin-1-yl)-2-methyl-6-((1-methylpiperidin-4-yl)amino)pyridin-3-yl)-2-(tert-butoxy)acetic Acid] yielded an EC50 of 1 nM.
Work on `Cc1nc(-c2cnn(C)c2C)c(-c2ccc3c(c2)CCN(c2ncnc4c2oc2ccccc24)C3)c(N2CCC(C)(C)CC2)c1[C@H](OC(C)(C)C)C(=O)O` [Example 13, (S)-2-(5-(2-(Benzofuro[3,2-d]pyrimidin-4-yl)-1,2,3,4-tetrahydroisoquinolin-6-yl)-6-(1,5-dimethyl-1H-pyrazol-4-yl)-4-(4,4-dimethylpiperidin-1-yl)-2-methylpyridin-3-yl)-2-(tert-butoxy)acetic Acid] yielded an EC50 of 2 nM.
`Cc1nc(NCCCN2CCCCC2)c(-c2ccc3c(c2)CCN(c2ncnc4c2oc2ccccc24)C3)c(N2CCC(C)(C)CC2)c1[C@H](OC(C)(C)C)C(=O)O` [Example 15, (S)-2-(5-(2-(Benzofuro[3,2-d]pyrimidin-4-yl)-1,2,3,4-tetrahydroisoquinolin-6-yl)-4-(4,4-dimethylpiperidin-1-yl)-2-methyl-6-((3-(piperidin-1-yl)propyl)amino)pyridin-3-yl)-2-(tert-butoxy)acetic Acid] gave an EC50 of 2 nM.
`Cc1nc(NCCCN2CCN(C)CC2)c(-c2ccc3c(c2)CCN(c2ncnc4c2oc2ccccc24)C3)c(N2CCC(C)(C)CC2)c1[C@H](OC(C)(C)C)C(=O)O` [Example 16, (S)-2-(5-(2-(Benzofuro[3,2-d]pyrimidin-4-yl)-1,2,3,4-tetrahydroisoquinolin-6-yl)-4-(4,4-dimethylpiperidin-1-yl)-2-methyl-6-((3-(4-methylpiperazin-1-yl)propyl)amino)pyridin-3-yl)-2-(tert-butoxy)acetic Acid] was tested, and the EC50 was 2 nM.
With `Cc1nc(C)c([C@H](OC(C)(C)C)C(=O)O)c(N2CCC(C)(C)CC2)c1-c1ccc2c(c1)CCN(c1nccc(N(C)C)n1)C2` [Example 17, (2S)-2-(tert-Butoxy)-2-(5-{2-[4-(dimethylamino)pyrimidin-2-yl]-1,2,3,4-tetrahydroisoquinolin-6-yl}-4-(4,4-dimethylpiperidin-1-yl)-2,6-dimethylpyridin-3-yl)acetic Acid] the EC50 was 1 nM.
Molecule `Cc1nc(C)c([C@H](OC(C)(C)C)C(=O)O)c(N2CCC(C)(C)CC2)c1-c1ccc2c(c1)CCN(c1ccnc(N3CCC3)n1)C2` [Example 18, (2S)-2-(5-{2-[2-(Azetidin-1-yl)pyrimidin-4-yl]-1,2,3,4-tetrahydroisoquinolin-6-yl}-4-(4,4-dimethylpiperidin-1-yl)-2,6-dimethylpyridin-3-yl)-2-(tert-butoxy)acetic Acid] has an EC50 of 1 nM.
Work on `Cc1nc(C)c([C@H](OC(C)(C)C)C(=O)O)c(N2CCC(C)(C)CC2)c1-c1ccc2c(c1)CCN(c1nccc(N3CCC3)n1)C2` [Example 19, (2S)-2-(5-{2-[4-(Azetidin-1-yl)pyrimidin-2-yl]-1,2,3,4-tetrahydroisoquinolin-6-yl}-4-(4,4-dimethylpiperidin-1-yl)-2,6-dimethylpyridin-3-yl)-2-(tert-butoxy)acetic Acid] yielded an EC50 of 1 nM.
With `Cc1nc(C)c([C@H](OC(C)(C)C)C(=O)O)c(N2CCC(C)(C)CC2)c1-c1ccc2c(c1)CCN(c1ccnc(N3CCCC3)n1)C2` [Example 20, (2S)-2-(tert-Butoxy)-2-[4-(4,4-dimethylpiperidin-1-yl)-2,6-dimethyl-5-{2-[2-(pyrrolidin-1-yl)pyrimidin-4-yl]-1,2,3,4-tetrahydroisoquinolin-6-yl}pyridin-3-yl]acetic Acid] the EC50 was 2 nM.
For `Cc1nc(C)c([C@H](OC(C)(C)C)C(=O)O)c(N2CCC(C)(C)CC2)c1-c1ccc2c(c1)CCN(c1nccc(N3CCCC3)n1)C2` [Example 21, (2S)-2-(tert-Butoxy)-2-[4-(4,4-dimethylpiperidin-1-yl)-2,6-dimethyl-5-{2-[4-(pyrrolidin-1-yl)pyrimidin-2-yl]-1,2,3,4-tetrahydroisoquinolin-6-yl}pyridin-3-yl]acetic Acid], the EC50 was 2 nM.
For `Cc1nc(C)c([C@H](OC(C)(C)C)C(=O)O)c(N2CCC(C)(C)CC2)c1-c1ccc2c(c1)CCN(c1ccnc(N3CCCCC3)n1)C2` [Example 22, (2S)-2-(tert-Butoxy)-2-[4-(4,4-dimethylpiperidin-1-yl)-2,6-dimethyl-5-{2-[2-(piperidin-1-yl)pyrimidin-4-yl]-1,2,3,4-tetrahydroisoquinolin-6-yl}pyridin-3-yl]acetic Acid], the EC50 was 3 nM.
Molecule `Cc1nc(C)c([C@H](OC(C)(C)C)C(=O)O)c(N2CCC(C)(C)CC2)c1-c1ccc2c(c1)CCN(c1nccc(N3CCCCC3)n1)C2` [Example 23, (2S)-2-(tert-Butoxy)-2-[4-(4,4-dimethylpiperidin-1-yl)-2,6-dimethyl-5-{2-[4-(piperidin-1-yl)pyrimidin-2-yl]-1,2,3,4-tetrahydroisoquinolin-6-yl}pyridin-3-yl]acetic Acid] has an EC50 of 3 nM.
In the case of `Cc1nc(C)c([C@H](OC(C)(C)C)C(=O)O)c(N2CCC(C)(C)CC2)c1-c1ccc2c(c1)CCN(c1nccc(N3CCC(C)(C)CC3)n1)C2` [Example 24, (2S)-2-(tert-Butoxy)-2-[4-(4,4-dimethylpiperidin-1-yl)-5-{2-[4-(4,4-dimethylpiperidin-1-yl)pyrimidin-2-yl}-1,2,3,4-tetrahydroisoquinolin-6-yl}-2,6-dimethylpyridin-3-yl]acetic Acid], the EC50 is reported as 8 nM.
Work on `Cc1nc(C)c([C@H](OC(C)(C)C)C(=O)O)c(N2CCC(C)(C)CC2)c1-c1ccc2c(c1)CCN(c1nccc(N3CCC4(CCC4)CC3)n1)C2` [Example 25, (2S)-2-{5-[2-(4-{7-Azaspiro[3.5]nonan-7-yl}pyrimidin-2-yl)-1,2,3,4-tetrahydroisoquinolin-6-yl]-4-(4,4-dimethylpiperidin-1-yl)-2,6-dimethylpyridin-3-yl}-2-(tert-butoxy)acetic Acid] yielded an EC50 of 5 nM.
For `Cc1ncc(-c2ccc3c(c2)CCN(c2nccc(N4CCOCC4)n2)C3)c(N2CCC(C)(C)CC2)c1[C@H](OC(C)(C)C)C(=O)O` [Example 26, (2S)-2-(tert-Butoxy)-2-[4-(4,4-dimethylpiperidin-1-yl)-2-methyl-5-{2-[4-(morpholin-4-yl)pyrimidin-2-yl]-1,2,3,4-tetrahydroisoquinolin-6-yl}pyridin-3-yl]acetic Acid], the EC50 was 0.8 nM.
Molecule `Cc1nc(C)c([C@H](OC(C)(C)C)C(=O)O)c(N2CCC(C)(C)CC2)c1-c1ccc2c(c1)CCN(c1ccnc(N3C[C@@H](C)O[C@@H](C)C3)n1)C2` [Example 27, (2S)-2-(tert-Butoxy)-2-[5-(2-{2-[(2R,6S)-2,6-dimethylmorpholin-4-yl]pyrimidin-4-yl}-1,2,3,4-tetrahydroisoquinolin-6-yl)-4-(4,4-dimethylpiperidin-1-yl)-2,6-dimethylpyridin-3-yl]acetic Acid] has an EC50 of 2 nM.
For `Cc1nc(C)c([C@H](OC(C)(C)C)C(=O)O)c(N2CCC(C)(C)CC2)c1-c1ccc2c(c1)CCN(c1nccc(N3C[C@@H](C)O[C@@H](C)C3)n1)C2` [Example 28, (2S)-2-(tert-Butoxy)-2-[5-(2-{4-[(2R,6S)-2,6-dimethylmorpholin-4-yl]pyrimidin-2-yl}-1,2,3,4-tetrahydroisoquinolin-6-yl)-4-(4,4-dimethylpiperidin-1-yl)-2,6-dimethylpyridin-3-yl]acetic Acid], the EC50 was 2 nM.
`Cc1nc(C)c([C@H](OC(C)(C)C)C(=O)O)c(N2CCC(C)(C)CC2)c1-c1ccc2c(c1)CCN(c1ccnc(N3CC4CCC(C3)O4)n1)C2` [Example 29, (2S)-2-(tert-Butoxy)-2-[4-(4,4-dimethylpiperidin-1-yl)-2,6-dimethyl-5-[2-(2-{8-oxa-3-azabicyclo[3.2.1]octan-3-yl}pyrimidin-4-yl)-1,2,3,4-tetrahydroisoquinolin-6-yl]pyridin-3-yl]acetic Acid] showed an EC50 of 4 nM.
